Measured values as given in US12350782B2, “Method for producing stable-phase crystals using physical grinding” (University-Industry Cooperation Group of Kyung Hee …, priority 2021, dated 2025).
Like-named read-outs stand apart in the source and are kept apart here.

Details: for phase-transformed into gamma-glycine: after 24 hours

phase-transformed into gamma-glycine (100 g glass beads 1.7 to 2.0 mm, 300 g group 1, 500 rpm): 100%
gamma-glycine (stable phase crystal) obtained (glass beads 1.7 to 2.0 mm, about 100 to 200 g, 300 rpm, stirred/ground 24-48 hours, groups 1 to 6): 100%
time after which supersaturation of stable phase crystals (gamma-glycine) increased (magnetic bar in propeller stirring device, 300 rpm): about 1,500 minutes
stable phase crystals obtained (magnetic bar stirred/ground at 300 rpm for about 65 hours or more (6,800 minutes)): 100%
stable phase crystal (gamma-glycine) precipitation rate (simple propeller stirrer, no physical grinding, 300 g, 300 rpm, about 15 days, groups 1 to 6 of Table 1): 0%
phase transformation from alpha-glycine to gamma-glycine (zirconia beads 5.0 to 7.0 mm, 100 rpm, 24 hours plus further 48 hours stirring): 100%
phase-transformed into gamma-glycine (zirconia beads 5.0 to 7.0 mm, 300 g group 1, 100 rpm): 0%
Compound: NCC(=O)O [alpha-glycine, glycine]
